Laboratory results from patent US20130157949A1, “Novel Peptides for Wound Healing” (GENE SIGNAL INTERNATIONAL SA, priority 2010, published 2013).

How the values were obtained:
trans-dermal wounds = test: wound healing of trans-dermal wounds in mice, topical application; assay type: in vivo; conditions: for % healing at day 1 post treatment / % healing at day 2 post treatment / % healing at day 3 post treatment / % healing at day 4 post treatment: topical 0.5 mg/ml (5 mg/kg), 1 application/day, 5 mm punch wounds; for speed of wound healing compared with Vehicle / 156A protein: topical 0.5 mg/ml, time course over 4 days
Experimental: The vehicle (Batch A) was administered by topical application at a standardized volume of 10 ml/kg for all applications. The peptides of the invention, the protein 156A or the peptides 2, 6 and 9 were administered by topical application at the concentration of 0.5 mg/ml in the vehicle. The protocols of treatment were as it follows: • Group 1: (Batch A, Vehicle): 1 topical application 10 minutes after wounding • Group 2: (Peptide 7, 0.5 mg/ml): 1 topical application 10 minutes after wounding • Group 3: (Peptide 10, 0.5 mg/ml): 1 topical application 10 minutes after wounding • Group 4: (Peptide 11, 0.5 mg/ml): 1 topical application 10 minutes after wounding • Group 5: (Peptide 7B, 0.5 mg/ml): 1 topical application 10 minutes after wounding. • Group 6: (Peptide 2, 0.5 mg/ml): 1 topical application 10 minutes after wounding. • Group 7: (Peptide 6, 0.5 mg/ml): 1 topical application 10 minutes after wounding. • Group 8: (Peptide 9, 0.5 mg/ml): 1 topical application 10 minutes after wounding. • Group 9: (Protein 156A, 0.5 mg/mL): 1 topical application 10 minutes after wounding.
Healthy female BALBC Swiss mice were anesthetized by IP injection of Ketamine-Xylazine (80 mg/kg-12 mg/kg; Ref. K-113, Sigma, France). Two trans-dermal wounds, each of 5 mm in width and about 1 to 2 mm in depth were realized in the right and the left flanks of each mouse using 5 mm punch.
At D1, and 10 min post-injury of the animals, the mice were randomized into 9 groups of 3 mice each.
All treatments were realized by topical application at the frequency of 1 topical application/day, for 4 days. Animals of group 1 were treated with the vehicle solution (Batch A). Animals of groups 2 to 9 were treated with the indicated peptide or with the 156A protein at a dose of 5 mg/kg.

[1] = tested on: human microvascular endothelial cells (HMEC); test: in vitro angiogenesis assay (Matrigel, endothelial tube formation); assay type: cell-based; conditions: for in vitro angiogenesis-inducing activity: 400 μg/ml final concentration, images at 6 h post incubation; for classification of in vitro angiogenesis inducing activity: 400 μg/ml, rank order among peptides
Experimental: Angiogenesis of human microvascular endothelial cells (HMEC) was induced in vitro using a Matrigel assay described by Grant et α1 (1989, Cell, 1989; 58:933). This method is based on the differentiation of endothelial cells to form capillary structures on a Matrigel Matrix. Matrigel is prepared the Engelbreth-Holm-Swarm (EHS) mouse tumor, which represents a complex mixture of basement membrane proteins including type IV collagen, entactin, proteo-heparan sulfate and other growth factors.
Briefly, 250 μl of Matrigel were transferred to each well of a 24-well culture plate and incubated at 37° C. for 30 min to allow for the matrix solution to solidify. HMEC grown in complete growth medium EGM-2MV were harvested by trypsin, suspended in the same growth medium and 500 μl containing 70 000 cells were added on top of the solidified Matrigel in each well and in the presence or absence of protein. Cells were maintained in a humidified atmosphere air containing 5% CO2 at 37° C. for 18-24 hrs. Endothelial tube formation was observed and photographed under an inverted light microscope.
The designed small peptides 7 (SEQ ID NO: 1), 10 (SEQ ID NO: 3), and 11 (SEQ ID NO: 4) were synthesized and tested for their in vitro angiogenesis-inducing activities (as described in Methods here above).
The results of the in vitro angiogenesis assay were presented in FIG. 1, using HMEC and 400 μg/ml final concentration of each peptide. Images were taken at 6 h post incubation.

VEGFA mRNA = test: VEGFA expression by real time quantitative PCR in HMEC; assay type: cell-based, human; conditions: 400 μg/ml, 6 h, QPCR
Experimental: After exposure to the indicated concentrations of peptide 7 or peptide 10 issued from the recombinant protein GS-156A or vehicle for 24 h, HMEC (5×10^5 cells/ml), total mRNA were isolated using NucleoSpin RNA II kit. RNA yields and purity were assessed by spectrophotometric analysis. The real-time RT-PCR was performed as previously described (Voghel et al., 2008). […] The real-time PCR reactions were carried out with the DNA Engine OPTICON 2 continuous fluorescence detector (MJ Research, Waltham, Mass., U.S.A.). The results were quantified using the equation: CopyTF:CopyGAPDH=2C(t)GAPDH−C(t)TF. All PCR products were analyzed by electrophoresis on a 1.5% agarose gel, visualized with ethidium bromide, and analyzed using the Genesnap 6.00.26 software (Syngene, Cambridge, U.K.). […]
The influence of peptide 7 and peptide 10 on VEGFA expression was investigated. For that, HMEC were incubated with either peptide 7 (400 μg/ml final concentration), or peptide 10 (400 μg/ml final concentration) for 6 h, followed by measuring the expression of VEGFA by real time quantitative PCR (QPCR).

VEGFA protein = VEGFA protein by sandwich ELISA in HMEC culture medium; assay type: cell-based, human
Experimental: Serum-deprived HMEC were incubated with different concentrations of peptide 7 or peptide 10 or vehicle […]. After 3 washes with ice-cold PBS, cells were suspended with the protein extraction buffer (PEB) (20 mM Tris-HCl pH 7.5, 150 mM NaCl, 1 mM EDTA, 1 mM EGTA, 1% Triton, 25 mM sodium pyrophosphate, 1 mM β-glycero-phosphate, 1 mM Na3Vo4, 1 μg/ml leupeptine, 1 μM PMSF). The protein content was measured by Bradford. VEGFA concentration in the culture medium or in the extracts was determined by human VEGFA Sandwich ELISA kit (Cell Signaling technology) according to the manufacturer's instructions.

Protein Kinase B (Akt) = test: activation status of protein kinase B (pAkt) by western-blot in HMEC; assay type: cell-based, human; conditions: 400 μg/ml, 10 min and 30 min post incubation, immunoblot
Experimental: The activation status of pAkt was determined by western-blot using an anti-phosphoserine 473 pAkt antibody, and anti-GAPDH mAb as internal standard.
The status of Akt in the HMEC following incubation with either peptide 7 or peptide 10 was investigated.

MAPK (Erk1 and 2) = test: activation status of MAPK (pErk1/2) by western-blot in HMEC; assay type: cell-based, human; conditions: immunoblot pErk1/2
Experimental: The activation status of MAPK was determined by western-blot using an anti-activated MAPK (pErk1/2) antibody, and anti-GAPDH mAb as internal standard.
We have also investigated the status of the mitogen activated protein kinase (MAPK), as it is well established that it represents another cascade of intracellular signaling could be implicated in the regulation of VEGF expression.

[2] = tested on: trans-dermal wounds in diabetic mice; test: wound healing in diabetic mice, subcutaneous injection beneath the wound; assay type: in vivo, ob/ob C57BL6/J mice; conditions: 2 mg/ml or 5 mg/ml, sb injection 200 μl/day for 4 days, 8 mm punch wounds
Experimental: Diabetic female ob/ob C57BL6/J mice were anesthetized by IP injection of Ketamine-Xylazine (80 mg/kg-12 mg/kg; Ref. K-113, Sigma, France). Two trans-dermal wounds, each of 8 mm in width and about 1 to 2 mm in depth were realized in the right flank of each mouse using 8 mm punch.
At D1, and 10 min post-injury of the animals, the mice were randomized into 3 groups of 5 mice each.
All treatments were realized by subcutaneous (sb) injections beneath the wounded area at the frequency of 1 sb injection/day, for 4 days. Animals of group 1 were injected with the vehicle solution (Batch A; 200 μl/injection, beneath the wounded area). Animals of groups 2 were sb injected with P7 solution in vehicle (2 mg of P7/ml of vehicle) (200 μl/injection; 16 mg/kg; beneath the wounded area). Animals of groups 3 were sb injected with P7 solution in vehicle (5 mg of P7/ml of vehicle) (200 μl/injection; 40 mg/kg; beneath the wounded area).

TQECPVRTSLDRELDLQASL [Peptide 7, fragment of the protein 156A, chemically synthesized]
% healing at day 1 post treatment (trans-dermal wounds): 52.8% | % healing at day 2 post treatment (trans-dermal wounds): 60.1% | % healing at day 3 post treatment (trans-dermal wounds): 65.6% | % healing at day 4 post treatment (trans-dermal wounds): 82.9% | speed of wound healing compared with Vehicle / 156A protein (trans-dermal wounds): healed faster than the wounds treated with Vehicle or with the 156A protein | in vitro angiogenesis-inducing activity [1]: strong in vitro angiogenesis-inducing activity | classification of in vitro angiogenesis inducing activity [1]: peptide 7>peptide 10>peptide 11 | VEGFA mRNA higher than Control (no peptide) (VEGFA mRNA): about 170% | increases of VEGFA-biosynthesis and excretion (VEGFA protein; 400 μg/ml): about 2 folds | increase in VEGF protein within the culture medium (peak) (VEGFA protein; 400 μg/ml of peptide, p<0.001): about 97% | level of activated Akt relative to Control (Protein Kinase B (Akt)): much higher level of activated Akt | level of activation of Erk1 and 2 (MAPK) relative to Control (MAPK (Erk1 and 2)): not significant variations in level of activation of Erk1 and 2 | healing of the wounds in diabetic mice compared to control [2]: strong healing of the wounds

VSKDVCRL [Peptide 10, fragment of the protein 156A, chemically synthesized]
% healing at day 1 post treatment (trans-dermal wounds): 42.8% | % healing at day 2 post treatment (trans-dermal wounds): 61.3% | % healing at day 3 post treatment (trans-dermal wounds): 65.6% | % healing at day 4 post treatment (trans-dermal wounds): 78.9% | speed of wound healing compared with Vehicle / 156A protein (trans-dermal wounds): healed faster than the wounds treated with Vehicle or with the 156A protein | in vitro angiogenesis-inducing activity [1]: strong in vitro angiogenesis-inducing activity | classification of in vitro angiogenesis inducing activity [1]: peptide 7>peptide 10>peptide 11 | VEGFA mRNA higher than Control (no peptide) (VEGFA mRNA): about 60% | level of activated Akt relative to Control (Protein Kinase B (Akt)): much higher level of activated Akt | level of activation of Erk1 and 2 (MAPK) relative to Control (MAPK (Erk1 and 2)): not significant variations in level of activation of Erk1 and 2

FQRLLKQ [Peptide 9, comparative fragment of the 156A protein without enhanced efficiency]
speed of wound healing compared with Vehicle / 156A protein (trans-dermal wounds): healed slower than the wounds treated with Vehicle

ELDLQASL [Peptide 7B, fragment of the protein 156A, chemically synthesized]
% healing at day 1 post treatment (trans-dermal wounds): 33.2% | % healing at day 2 post treatment (trans-dermal wounds): 56.9% | % healing at day 3 post treatment (trans-dermal wounds): 63.7% | % healing at day 4 post treatment (trans-dermal wounds): 76.6% | speed of wound healing compared with Vehicle / 156A protein (trans-dermal wounds): healed faster than the wounds treated with Vehicle or with the 156A protein

RSLRVKRTVCQSVLR [Peptide 6, comparative fragment of the 156A protein without enhanced efficiency]
speed of wound healing compared with Vehicle / 156A protein (trans-dermal wounds): healed slower than the wounds treated with Vehicle

QSQKVPRQVQS [Peptide 11, fragment of the protein 156A, chemically synthesized]
% healing at day 1 post treatment (trans-dermal wounds): 41.9% | % healing at day 2 post treatment (trans-dermal wounds): 52.1% | % healing at day 3 post treatment (trans-dermal wounds): 58.4% | % healing at day 4 post treatment (trans-dermal wounds): 64.4% | speed of wound healing compared with Vehicle / 156A protein (trans-dermal wounds): healed faster than the wounds treated with Vehicle or with the 156A protein | in vitro angiogenesis-inducing activity [1]: strong in vitro angiogenesis-inducing activity | classification of in vitro angiogenesis inducing activity [1]: peptide 7>peptide 10>peptide 11

RLNRSDSDSSTLAKK [Peptide 2, comparative fragment of the 156A protein without enhanced efficiency]
speed of wound healing compared with Vehicle / 156A protein (trans-dermal wounds): healed slower than the wounds treated with Vehicle
